Results: US20250353873A1, “COMPOUNDS AND METHODS FOR MODULATING APOE EXPRESSION” (Ionis Pharmaceuticals, Inc., priority 2024, published 2025)
Strand notation (5' to 3'): a small letter for the sugar, then the base; units joined by * are phosphorothioate-linked, units joined directly phosphodiester-linked; [ ] holds rarer units or linkages, { } end groups; capitals alone tell only the bases. [ms] = mesyl phosphoramidate linkage; e = 2'-O-(2-methoxyethyl) (MOE); k = constrained ethyl (cEt); [5mC] = 5-methylcytosine; d = 2'-deoxy (DNA)

Assays:
human APOE RNA [1] = experiment: Activity in APOE C57BL/6NTac-Apoeem7250 knock-in mice, single ICV bolus, 4 weeks (Example 10); assay type: in vivo; settings: C57BL/6NTac-Apoeem7250 knock-in mice, single ICV bolus 300 μg, 4 weeks (Table 22)
Method in brief: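 Human APOE RNA, quantified by real-time RT-PCR with RTS3073 and normalized to mouse Ppia, was read in cortical brain and spinal cord 4 weeks post dosing. Dosing was a single ICV bolus of 300 μg per knock-in mouse; values are % of PBS-treated animals.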

human APOE RNA [2] = experiment: Activity in APOE C57BL/6NTac-Apoeem7250 knock-in mice, single ICV bolus, 16 weeks (Example 12); assay type: in vivo; settings: single ICV bolus 300 μg, 16 weeks post treatment, normalized to mouse Ppia
Method in brief: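 A single 300 μg intracerebroventricular dose was given, with PBS-treated mice as reference; cortical and spinal cord tissue was taken 16 weeks later. RT-qPCR quantified human APOE RNA, Ppia-normalized, expressed relative to PBS animals (% control).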

human APOE RNA [3] = experiment: Dose-dependent inhibition of human APOE RNA in HepG2 cells, electroporation, 24 hours (Example 6); assay type: cell-based
Method: Modified oligonucleotides selected from the examples above were tested at various doses in HepG2.
HepG2 cells plated at a density of 50,000 cells per well were treated by electroporation with various concentrations of modified oligonucleotide as specified in the tables below. […] APOE RNA levels were measured using the human primer probe set RTS3073 (described herein above). APOE RNA levels were normalized to human GAPDH. Human GAPDH was amplified using human primer probe set RTS 104 (described herein above). Results are presented as percent APOE RNA, relative to the amount of APOE RNA in untreated control cells (% UTC). The half maximal inhibitory concentration (IC50) of each modified oligonucleotide was calculated in GraphPad Prism 10 (GraphPad Software, San Diego, CA) and is also presented in the tables below.

| Substance | APOE RNA (% control) Cortex (human APOE RNA [1]) [% control] | APOE RNA (% control) Spinal Cord (human APOE RNA [1]) [% control] | APOE RNA (% control) Cortex (human APOE RNA [2]) [% control] | APOE RNA (% control) Spinal Cord (human APOE RNA [2]) [% control] | IC50 (human APOE RNA [3]) [nM] | APOE RNA (% UTC) (human APOE RNA [3]; 5 nM) | APOE RNA (% UTC) (human APOE RNA [3]; 13 nM) | APOE RNA (% UTC) (human APOE RNA [3]; 33 nM) | APOE RNA (% UTC) (human APOE RNA [3]; 82 nM) | APOE RNA (% UTC) (human APOE RNA [3]; 205 nM) | APOE RNA (% UTC) (human APOE RNA [3]; 512 nM) | APOE RNA (% UTC) (human APOE RNA [3]; 1,280 nM) | APOE RNA (% UTC) (human APOE RNA [3]; 3,200 nM) | APOE RNA (% UTC) (human APOE RNA [3]; 8,000 nM) | APOE RNA (% UTC) (human APOE RNA [3]; 20,000 nM) |
| --- | --- | --- | --- | --- | --- | --- | --- | --- | --- | --- | --- | --- | --- | --- | --- |
| 1736529 (e[5mC]*eT*eT*eG*eG*eTdG[ms]dA[ms]dA[ms]dT*d[5mC]*dT*dT*dT*dA[ms]dT*kT*kA*eA*eA; antisense) [Compound 1736529] | 51 | 46 | 60 | 28 | 1120 | 92 | 102 | 92 | 115 | 75 | 56 | 45 | 29 | 13 | 30 |
| 1736534 (e[5mC]*eT*eT*eG*eGeT*dG[ms]dA[ms]dA[ms]dT*d[5mC]*dT*dT*dT*dA[ms]dT*kT*kA*eA*eA; antisense) [Compound 1736534] | 31 | 55 | 46 | 34 | 890 | 99 | 110 | 93 | 103 | 65 | 50 | 45 | 24 | 19 | 25 |
| 1736493 (e[5mC]*eTeT*eG*eG*eT*dG[ms]dA[ms]dA[ms]dT*d[5mC]*dT*dT*dT*dA[ms]dT*kT*kA*eA*eA; antisense) [Compound 1736493] | 47 | 51 | 57 | 51 | 140 | 73 | 85 | 67 | 58 | 50 | 35 | 25 | 8 | 6 | 8 |
| 1736532 (e[5mC]*eT*eT*eG*kG*kTdG[ms]dA[ms]dA[ms]dT*d[5mC]*dT*dT*dT*dA[ms]dT*eT*eA*eA*eA; antisense) [Compound 1736532] | 30 | 38 | 34 | 45 | 280 | 81 | 85 | 74 | 71 | 54 | 41 | 32 | 17 | 23 | 5 |
| 1736535 (e[5mC]*eT*eT*eG*eGkT*dG[ms]dA[ms]dA[ms]dT*d[5mC]*dT*dT*dT*dA[ms]dT*eT*eA*eA*eA; antisense) [Compound 1736535] | 39 | 63 | 47 | 26 | 1660 | 90 | 96 | 99 | 93 | 67 | 69 | 53 | 24 | 51 | 13 |
| 1736513 (e[5mC]*eTeT*eG*eG*kT*dG[ms]dA[ms]dA[ms]dT*d[5mC]*dT*dT*dT*dA[ms]dT*eT*eA*eA*eA; antisense) [Compound 1736513] | 42 | 52 | 53 | 30 | 720 | 106 | 110 | 114 | 89 | 72 | 47 | 37 | 33 | 9 | 4 |
| 1736536 (e[5mC]*eT*eT*eG*kGkT*dG[ms]dA[ms]dA[ms]dT*d[5mC]*dT*dT*dT*dA[ms]dT*eT*eA*eA*eA; antisense) [Compound 1736536] | 31 | 53 | 36 | 31 | 620 | 97 | 102 | 79 | 79 | 63 | 58 | 43 | 25 | 9 | 6 |
